Experiment in all cases: NCI anticancer screen, dose series, 48 h
In assay [1] the test system is DMS 273 small cell lung.
The subject of assay [2] is LXFL 529 NSCLC.
For assay [3], the system named is DLD-1 colon.
The subject of assay [4] is DMS 114 small cell lung.
In assay [5] the test system is KM20L2 colon.
For assay [6], the system named is RPMI-8226 leukemia.
The test system of assay [7] is M19-MEL melanoma.
Assay [8] relates to SNB-78 CNS.
Assay [9] has as its system SK-MEL-5 melanoma.
The subject of assay [10] is XF 498 CNS.

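1) Cells in 96-well plates. 2) Compound, 48 h, 5 concentrations. 3) Linear interpolation between surrounding doses. 4) Unreached endpoint = highest concentration. GI50 marks 50% less growth. TGI: concentration producing complete growth inhibition.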 A value given as a limit tells only on which side of the number the result lay.

For the compound `CCn1cnc2c(=S)nc(N)[nH]c21`, the TGI in assay [1], in [2], in [3], in assay [4], in [5] and in assay [6] was > 100 µM in each case. In addition, the TGI in assay [7] and in assay [8] was > 100 µM throughout.
With `O=C1SC(SCc2ccccc2)=NC12CC2c1ccccc1` (stereo unspecified), the TGI came out at 34.1 µM in assay [9] and 48.3 µM in assay [6].
Take `Nc1ncc2c(n1)-c1ccccc1OC2N1CCCCC1` (stereo unspecified): the TGI in assay [9] and in [6] was > 100 µM in each case.
For `COc1ccccc1CC(=O)C(O)(C(F)(F)F)C(F)(F)F`, the TGI in [9] and in assay [6] was > 100 µM throughout.
As to `COc1cc(/C=C2\CN(S(=O)(=O)c3ccc(C)cc3)C/C(=C\c3cc(CN4CCCC4)c(O)c(OC)c3)C2=O)cc(CN2CCCC2)c1O`, the GI50 in [9] was 1.61 µM; in assay [6], 1.14 µM. Moreover, the TGI stood at 2.97 µM in [9] and 3.17 µM in assay [6].
Consider `CCOC(=O)CCC(NC(=O)C(N)Cc1ccc(N(CCCl)CCCl)cc1)C(=O)OCC` (stereo unspecified), for which the TGI in assay [9] was 2.93 µM; in assay [6], 17.7 µM.
Regarding `N=c1oc2ccccc2cc1C(=O)NC12CC3CC(CC(C3)C1)C2`, the TGI amounted to 69.9 µM in [9] and 31.1 µM in assay [6].
As to `O=C1c2sc(-c3ccc(Cl)cc3)cc2-n2cccc21`, the TGI in assay [9] and in assay [6] was > 100 µM throughout.
For the compound `CCOC(=O)c1ccc(-c2cc(C)no2)[nH]1`, the TGI in assay [9] and in [6] was > 100 µM throughout.
As to `O=c1[nH]c(=O)n(C2COC(CO)C2O)cc1F` (stereo unspecified), the TGI in assay [9] and in assay [6] was > 100 µM throughout.
As to `CCNC(=O)c1ccc(C)c(N=NN(C)C)c1`, the TGI in assay [1], in assay [9], in assay [2], in assay [3], in assay [5] and in assay [7] was > 100 µM in each case. Besides, the TGI in [8] was > 100 µM.
On to `CCOC(=O)/C(C#N)=C/c1coc2cc(C)cc(C)c2c1=O`, for which the TGI in assay [9] and in [6] was > 100 µM throughout.
With `C=CCNC(=S)N/C=C(\C#N)C(N)=O`, the TGI in assay [9] and in assay [6] was > 100 µM in each case.
Take `O=C1/C(=C/c2ccco2)NC(=S)N1CN1CCCCC1`: the TGI in assay [9] and in [6] was > 100 µM each time.
For the compound `NC(Cc1ccccc1)C(=O)NC(Cc1ccccc1)NC(=O)C(Cc1c[nH]c2ccccc12)C(=O)O` (stereo unspecified), the TGI in assay [9] and in assay [6] was > 100 µM each time.
`COc1ccc(NC(=S)c2ccc(CN3CCCCC3)s2)cc1`: the TGI was found to be 28 µM in [9] and 74.7 µM in [6].
On the same counts, the results for `CCOC(=O)c1csc(NC(=O)CN2CCCC2)n1` are > 100 µM and > 100 µM.
On the same counts, the results for `O=C1OC(c2ccccc2)=N/C1=C\c1ccc([N+](=O)[O-])cc1` are > 100 µM and > 100 µM.
Take `CC(C)C(NC(=O)Oc1ccccc1)C(=O)NC1c2c(Br)sc(Br)c2C(=O)C1O` (stereo unspecified): the TGI in assay [9] was found to be 8.36 µM.
Take `CO[C@](C(=O)OC[C@H]1[C@@H](COC(C)=O)[C@@H]2O[C@H]1c1cc3c(cc12)OCO3)(c1ccccc1)C(F)(F)F`: the results for the TGI in [9] and in [6] were > 100 µM and 38.7 µM, respectively.
For the compound `COc1cc2c(/C=C3/C(=O)Nc4cccc(Cl)c43)c(Cl)[nH]c2cc1C`, the results for the TGI in assay [9] and in assay [6] were 14.3 µM and 4.69 µM, respectively.
In the same order, the values of `Cc1cc(OC(=O)Nc2cccc3ccccc23)c(C(C)C)cc1C(=S)Nc1ccccc1` are 27.9 µM and 75.8 µM.
In the same order, the values of `O=C1c2ccccc2-n2nnnc2C2CSCN12` (stereo unspecified) are > 100 µM and > 100 µM.
Turning to `CCOC(=O)c1nnn(CCCCO)c1C(=O)OCC`, the TGI in [9] is > 100 µM.
In the case of `O=C(O)C1C2c3ccccc3C(c3ccccc32)C1C(=O)NCC1CC1` (stereo unspecified), the TGI is > 100 µM in assay [9] and 85.3 µM in assay [6].
For the compound `COC(=O)c1ccc(Cc2cc(Cc3ccc(C(=O)OC)cc3)cc(Cc3ccc(C(=O)OC)cc3)c2)cc1`, the TGI in assay [6] was > 25 µM.
Turning to `N#C/C(N)=C(\C#N)NC=NCCO`, the TGI in [9] and in assay [6] was > 100 µM in each case.
Turning to `CCOC(=O)CCCSCCCC(=O)CCCSCCCC(=O)OCC`, the TGI in assay [9] is > 100 µM.
As for `Nc1nc(Cl)cc(OCC2(CO)CC=CC2)n1`, the TGI in [9] and in assay [6] was > 100 µM throughout.
For `COc1ccc(C2Oc3cc(OC)c(OC)cc3C2CCl)cc1OC` (stereo unspecified), the TGI in assay [1], in assay [10], in assay [9], in assay [2], in assay [3] and in assay [4] was > 100 µM in each case. The TGI in assay [5], in assay [6] and in [7] was > 100 µM in each case.
In the case of `C[C@]12[C@@H]3CC[C@H]1[C@@H](O)C(=O)N2CC3`, the TGI in assay [9] and in [6] was > 100 µM throughout.
Consider `Cc1ccc(Nc2nc(NNC(=O)Cc3ccccc3)nc(NNC(=O)c3ccncc3)n2)cc1`, for which the TGI in assay [9] and in assay [6] was > 10 µM throughout.
For `CCOC(=O)C12OC(OCC)(CC1(OCC)OCC)C1(CC1)C2=O` (stereo unspecified), in assay [9], the TGI was > 100 µM.
